Counter-ions that a name gives are not always drawn. Like-named read-outs stand apart in the source and are kept apart here.
Columns and labels:
[1] = biological target: T1, α-1A adrenoreceptor (rat submaxillary gland) (Rattus norvegicus, UniProt P43140); assay: In vitro [3H]-prazosin radioligand binding, pharmacologically defined α-1A adrenoreceptor (rat submaxillary gland)
T1 construct: Rat submaxillary glands were used for α-1A adrenoreceptors; from tissue; host or cells: rat submaxillary gland membranes
T1 sequence (P43140 1-466): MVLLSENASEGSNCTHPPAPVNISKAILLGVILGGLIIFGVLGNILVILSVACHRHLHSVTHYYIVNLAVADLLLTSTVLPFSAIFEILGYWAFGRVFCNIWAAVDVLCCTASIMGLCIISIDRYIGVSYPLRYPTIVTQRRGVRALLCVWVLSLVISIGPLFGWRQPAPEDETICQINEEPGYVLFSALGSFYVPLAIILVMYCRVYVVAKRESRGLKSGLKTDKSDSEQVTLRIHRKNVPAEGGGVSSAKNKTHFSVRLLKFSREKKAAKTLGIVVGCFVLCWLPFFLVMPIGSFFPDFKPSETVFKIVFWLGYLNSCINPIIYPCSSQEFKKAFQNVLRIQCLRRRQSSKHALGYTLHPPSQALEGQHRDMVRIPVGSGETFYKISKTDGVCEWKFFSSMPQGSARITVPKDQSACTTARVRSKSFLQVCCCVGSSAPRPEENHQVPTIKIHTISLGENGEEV
Description: Additionally, binding affinity against the pharmacologically defined α-1A adrenoreceptor (rat submaxillary gland) was measured.
On the fifth day of culture, growth medium was removed from cells grown in roller bottles, and the cells were washed twice with PBS (Sigma, 120 mM NaCl, 2.7 mM KCl, 10 mM Na2 HPO4 --NaH2 PO4, pH=7.4). Cells were detached from the roller bottles by incubating for 15 minutes at 37° C. in a Tris-EDTA solution (10 mM Tris, 100 mM NaCl, 1 mM EDTA, pH=7.4). The cell suspension from each roller bottle was decanted into tared centrifuge tubes and kept on ice. An aliquot of each cell suspension was generally taken for cell counting. Cells were centrifuged at 3000×G for 5 min at 2°-4° C., washed with PBS and recentrifuged. The supernatant was decanted and the pellet weighed to determine the wet weight of cells. Cells were washed a final time in 40 vol 5 mM Tris-HCl, 5 mM EDTA, pH=7.7, and centrifuged at 40,000×G for 10 minutes. Cells were homogenized in 10 mL of 50 mM Tris-HCl, 5 mM EDTA (pH=7.4) and diluted to 40 mL/tube. Homogenates were centrifuged at 40,000×G for 10 minutes. The supernatant was decanted and the pellets rehomogenized in 50 mM Tris-HCl (pH=7.4) and centrifuged as before. The supernatant was decanted and the homogenate resuspended in 6.25 volumes (per gram wet weight) of 50 mM Tris-HCl and aliquots of the pooled homogenates frozen in liquid N2 and stored at -70° C. until the time of assay. Rat submaxillary glands were used for α-1A adrenoreceptors and were prepared essentially as described (Michel, A. D., Loury, D. N. and Whiting, R. L., Brit. J. Pharmacol. 98: 83-889 (1989)).
Receptor binding assays for α-1 adrenoreceptors were performed essentially as described by Greengrass and Bremner (Eur. J. Pharmacol. 55: 323-326 (1979)). […] Radioactivity was determined by standard liquid scintillation techniques. Data were analyzed as previously described (Hancock, A. A., Kyncl, J. J., Martin, Y. C. and DeBernardis, J. F., J Receptor Res. 8: 23-46 (1988)).

[2] = biological target: T2, α-1B adrenoreceptor (rat spleen) (Rattus norvegicus, UniProt P15823); assay: Functional antagonism: inhibition of phenylephrine-induced contraction of rat spleen; assay type: cell-based
T2 construct: from tissue; host or cells: rat spleen
T2 sequence (P15823 1-515): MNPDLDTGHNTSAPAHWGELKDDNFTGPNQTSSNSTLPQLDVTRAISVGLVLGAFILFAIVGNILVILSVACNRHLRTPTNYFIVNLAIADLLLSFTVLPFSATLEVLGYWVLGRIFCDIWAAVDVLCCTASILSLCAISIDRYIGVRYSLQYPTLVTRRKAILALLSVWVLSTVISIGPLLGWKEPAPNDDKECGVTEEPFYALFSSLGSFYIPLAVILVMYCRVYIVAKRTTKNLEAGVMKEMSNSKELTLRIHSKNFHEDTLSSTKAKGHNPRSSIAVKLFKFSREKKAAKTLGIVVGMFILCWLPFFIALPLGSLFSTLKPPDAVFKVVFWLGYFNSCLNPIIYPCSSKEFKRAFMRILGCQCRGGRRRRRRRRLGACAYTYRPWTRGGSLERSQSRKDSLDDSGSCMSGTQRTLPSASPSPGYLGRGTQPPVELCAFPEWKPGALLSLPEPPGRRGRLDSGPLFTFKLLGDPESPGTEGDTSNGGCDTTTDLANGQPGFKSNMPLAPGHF
Source text: (§1) Functional assays indicative of pharmacologically defined α-1 adrenoreceptors were used to further characterize compounds. Inhibition of phenylephrine (PE)-induced contraction of canine prostate smooth muscle can be correlated with α-1A adrenoreceptor activation. […] For each of these models, agonist dose response curves were repeated against increasing concentrations of test agent to derive a Schild plot [log ([…]) against log (molarity of test agent)] to determine the pA2.

[3] = biological target: T3, α-1A adrenoreceptor (canine prostate smooth muscle) (Canis lupus, UniProt A0A8I3NK63); assay: Functional antagonism: inhibition of phenylephrine-induced contraction of canine prostate strips; assay type: cell-based; conditions: Schild plot
T3 construct: antagonism of phenylephrine-induced contraction (pA2, Schild)
T3 sequence (A0A8I3NK63 1-466): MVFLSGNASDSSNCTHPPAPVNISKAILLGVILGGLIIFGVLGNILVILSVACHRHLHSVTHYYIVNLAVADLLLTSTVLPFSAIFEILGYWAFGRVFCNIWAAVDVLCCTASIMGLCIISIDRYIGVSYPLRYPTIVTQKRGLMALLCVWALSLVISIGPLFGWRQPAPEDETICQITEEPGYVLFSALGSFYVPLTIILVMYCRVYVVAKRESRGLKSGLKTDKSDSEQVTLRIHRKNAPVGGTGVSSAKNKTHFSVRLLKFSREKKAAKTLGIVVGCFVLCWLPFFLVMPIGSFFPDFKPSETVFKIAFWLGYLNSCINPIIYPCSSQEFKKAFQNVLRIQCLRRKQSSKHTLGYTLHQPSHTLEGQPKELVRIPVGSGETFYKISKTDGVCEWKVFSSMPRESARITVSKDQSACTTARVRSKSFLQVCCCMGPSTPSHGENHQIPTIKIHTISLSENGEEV
Source text: Canine prostate strips were used in vitro as previously described (Hieble, J. P., Boyce, Caine, M., Fed Proc., 45: 2609-2614 (1986)), to determine antagonist potencies phenylephrine-induced contractions.
as §1
Canine prostate strips were used in vitro as previously described (Hieble, J. P., Boyce, A. J. and Caine, M., Fed. Proc., 45: 2609-2614 (1986)), to determine antagonist potencies against phenylephrine-induced contractions.

[4] = rat submaxillary gland, [3H]prazosin 0.2 nM, read-out: Radioligand Binding (Ki; nM) 1A (Rat)

Ki [1, 4] [nM]	In Vitro Characterization (pA2) Rat Spleen ([2]; rat spleen, phenylephrine-induced contraction, Schild plot)	SMILES	Ki [1] [nM]	Kb [2] [pM]	In Vitro Characterization (pA2) Dog Prostate [3]
–	–	COc1cccc2c1[C@@H]1CCN(CCCCn3c(=O)[nH]c4c(sc5ccccc54)c3=O)C[C@H]1CO2 (relative stereo) [Example 87, 3-[4-((±)-trans-10-Methoxy-1,3,4,4a,5,10b-hexahydro-2H-[1]-benzopyrano[3,4-c]pyrido-3-yl)butyl]-[1]-benzthieno[3,2-d]pyrimidine-2,4(1H,3H)-dione hydrochloride]	0.371	72400	–
–	–	COc1cccc2c1[C@@H]1CCN(CCCCn3c(=O)[nH]c4c(sc5cccnc54)c3=O)C[C@H]1CO2 (relative stereo) [Example 88, 3-[4-((±)-trans-10-Methoxy-1,3,4,4a,5,10b-hexahydro-2H-[1]-benzopyrano[3,4-c]pyrido-3-yl)butyl]-pyrido[2',3':4,5]thieno[3,2-d]pyrimidine-2,4(1H,3H)-dione hydrochloride]	0.188	72400	8.09
0.102	–	COc1cc2[nH]c(=O)n(CCN3CC[C@H]4c5c(OC)cccc5OC[C@@H]4C3)c(=O)c2cc1OC (relative stereo) [Example 91, 3-[2-((±)-trans-10-Methoxy-1,3,4,4a,5,10b-hexahydro-2H-[1]-benzopyrano[3,4-c]pyrido-3-yl)ethyl]-6,7-dimethoxy-quinazoline-2,4(1H,3H)-dione hydrochloride]	–	–	–
0.811	7.83	COc1ccc2c(n1)sc1c(=O)n(CCCCN3C[C@@H]4COc5cccc(OC)c5[C@@H]4C3)c(=O)[nH]c12 [Example 33, hydrochloride]	–	–	–
